From patent publication US10626095B2, “Cyanotriazole compounds” (OTSUKA PHARMACEUTICAL CO., LTD., priority 2013, dated 2020)

Columns and labels:
[1] = tested on: NaCT-CHO (CHO cells stably expressing human NaCT); assay: Assay of the citric acid cycle activation ([1,5-14C]-citric acid, diffusion of [14C]-CO2); assay type: cell-based; settings: 1 hour incubation at 37° C. with [1,5-14C]-citric acid
In short: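 NaCT-CHO cells (pME-CHO empty-vector cells for non-specific counts) were incubated 1 h at 37 °C in Na+-containing HEPES-Tris pH 7.4 with compound plus an equal volume of 0.4 mM [1,5-14C]-citric acid solution. Residual cell radioactivity was counted, [14C]-CO2 diffusion was taken as (Total−R)/(Total−NS)×100%, and EC50 was derived by regression.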

[2] = tested on: Zucker Diabetic Fatty (ZDF) rat; assay: Meal load test in type 2 diabetic model rats (postprandial blood glucose); assay type: in vivo; parameters: unit not given here; settings: ZDF rats fasted overnight, oral 10 mg/kg in 5% Arabia gum, blood glucose one hour after meal loading (50 kcal/kg)
In short: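 Overnight-fasted (17 h) ZDF rats, n=6 per group, given compound at 10 or 30 mg/kg orally in 5% Arabia gum 2 h before or just before a 50 kcal/kg AIN-93G meal load. Blood glucose at 1 h; effect expressed as BG1h difference from vehicle.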

Row | Structure (SMILES) | melting point | EC50 [1] | BG1h (BG1h difference between compound group and vehicle group) [2]
1 | Cc1cc(/C=C/c2cccc(-c3nn[nH]c3C#N)c2)ccc1F [Example 607, 5-{3-[(E)-2-(4-fluoro-3-methyl-phenyl)-vinyl]-phenyl}-3H-[1,2,3]triazole-4-carbonitrile] | 194 to 196 °C | 450 nM | −106.8
2 | N#Cc1[nH]nnc1-c1cccc(/C=C/c2ccc(F)cc2C(F)(F)F)c1 [Example 600, 5-{3-[(E)-2-(4-fluoro-2-trifluoromethyl-phenyl)-vinyl]-phenyl}-3H-[1,2,3]triazole-4-carbonitrile] | 189 to 192 °C | 430 nM | −74.0
3 | N#Cc1[nH]nnc1-c1cccc(-c2cc3ccccc3o2)n1 [Example 1573, 5-(6-(benzofuran-2-yl)-pyridin-2-yl)-3H-[1,2,3]triazole-4-carbonitrile] | 230 to 233 °C | 1030 nM | −132.7
4 | Cc1cc(-c2nn[nH]c2C#N)ccc1-c1nccc(C(F)(F)F)n1 [Example 989, 5-[3-methyl-4-(4-trifluoromethyl-pyrimidin-2-yl)-phenyl]-3H-[1,2,3]triazole-4-carbonitrile] | 214 to 218 °C | 800 nM | −116.0
5 | Cc1cc(/C=C/c2ccc(F)cc2)cc(-c2nn[nH]c2C#N)c1 [Example 627, 5-{3-[(E)-2-(4-fluoro-phenyl)-vinyl]-5-methyl-phenyl}-3H-[1,2,3]triazole-4-carbonitrile] | – | 740 nM | −85.2
6 | N#Cc1[nH]nnc1-c1cc(Cl)cc(/C=C/c2cc(C(F)(F)F)cc(C(F)(F)F)c2)c1 [Example 610, 5-{3-[(E)-2-(3,5-bis-trifluoromethyl-phenyl)-vinyl]-5-chloro-phenyl}-3H-[1,2,3]triazole-4-carbonitrile] | – | 1740 nM | −86.8
7 | N#Cc1[nH]nnc1-c1ccc(-c2nccc(C(F)(F)F)n2)cc1 [Example 70, 5-[4-(4-trifluoromethyl-pyrimidin-2-yl)-phenyl]-3H-[1,2,3]triazole-4-carbonitrile] | – | 510 nM | −137.2
8 | N#Cc1[nH]nnc1-c1cccc(/C=C/c2nccc(C(F)(F)F)n2)c1 [Example 52, 5-{3-[(E)-2-(4-trifluoromethyl-pyrimidin-2-yl)-vinyl]-phenyl}-3H-[1,2,3]triazole-4-carbonitrile] | – | 580 nM | −120.4
9 | N#Cc1[nH]nnc1-c1cc(Cl)cc(-c2cc3ccccc3s2)c1 [Example 718, 5-(3-benzo[b]thiophen-2-yl-5-chloro-phenyl)-3H-[1,2,3]triazole-4-carbonitrile] | 231 to 233 °C | 1510 nM | −147.5
10 | Cc1cc(-c2ccc(C(F)(F)F)cn2)cc(-c2nn[nH]c2C#N)c1 [Example 807, 5-[3-methyl-5-(5-trifluoromethyl-pyridin-2-yl)-phenyl]-3H-[1,2,3]triazole-4-carbonitrile] | – | 1100 nM | −94.5
11 | N#Cc1[nH]nnc1-c1cccc(/C=C/c2cncc(C(F)(F)F)c2)c1 [Example 49, 5-{3-[(E)-2-(5-trifluoromethyl-pyridin-3-yl)-vinyl]-phenyl}-3H-[1,2,3]triazole-4-carbonitrile] | – | 480 nM | −78.7
12 | N#Cc1[nH]nnc1-c1cccc(/C=C/c2cc(F)cc(C(F)(F)F)c2)c1 [Example 659, 5-{3-[(E)-2-(3-fluoro-5-trifluoromethyl-phenyl)-vinyl]-phenyl}-3H-[1,2,3]triazole-4-carbonitrile] | – | 810 nM | −161.2
